# Source: article PMC6255045, “Tyrosinase Inhibitor Activity of Coumarin-Resveratrol Hybrids” (Molecules, 2009)
# Where two headings read alike, the source gives them in different places.
# Key:
# mushroom tyrosinase [1] = assay: Tyrosinase inhibition assay (diphenolase activity, L-DOPA as substrate); assay type: biochemical; conditions: for tyrosinase inhibitory effect (in words): diphenolase activity; for tyrosinase inhibitory effect (in words) / % inhibition (at 0.8 mM) / IC50: substrate L-DOPA; for % inhibition (at 0.8 mM) / IC50: mushroom tyrosinase; for % inhibition (at 0.8 mM): compound at 0.8 mM
# Method: Tyrosinase activity assays were performed with L-DOPA as substrate, as previously described with slight modifications. The pre-incubation with enzyme consisted of a 1/15 M phosphoric acid buffer solution (pH 6.8, 1.8 mL), an aqueous solution of mushroom tyrosinase (1000 U/mL, Sigma Chemical Co., 0.1 mL) and DMSO (0.1 mL) with or without an added sample. The mixture was pre-incubated at 25°C for 10 minutes. Then, a 1.5 mM L-DOPA solution (1 mL) was added and the reaction was monitored at 475 nm for 5 min. The detected absorbance increases accompanying the oxidation of the substrate (L-DOPA). The final concentration of dopaquinone was measured using the molar absorption coefficient of 3,700 M^-1 cm^-1 [31]. One unit of enzymatic activity was defined as the amount of enzyme transforming 1 μmole of L-DOPA per minute. The percentage of inhibition of tyrosinase activity was calculated as inhibition (%) = (A-B)/A×100, where A represents the difference in the absorbance of control sample between an incubation time of 0.5 and 1.0 min, and B represents the difference in absorbance of the test sample between an incubation time of 0.5 and 1.0 min. The activity of mushroom tyrosinase was determinate by spectrophotometric techniques (Varian Cary 50). DMSO inhibitory activity, in the same experimental conditions, was evaluated as 10.7%.
# mushroom tyrosinase [2] = conditions: cited from earlier work
SMILES,tyrosinase inhibitory effect (in words) (mushroom tyrosinase [1]),% inhibition (at 0.8 mM) (mushroom tyrosinase [1]) [%],IC50 (mushroom tyrosinase [1]) [µM],also measured
O=c1oc2cc(O)ccc2cc1-c1ccccc1 [Compound 1],did not inhibit any tyrosinase activity,0,–,–
O=c1oc2ccccc2cc1-c1ccc(O)cc1 [Compound 2],no demonstrable inhibitory effects,0,–,–
O=c1oc2cc(O)ccc2cc1-c1ccc(O)cc1 [Compound 3],no demonstrable inhibitory effects,9.6,–,–
O=c1ccc2ccc(O)cc2o1 [Umbelliferone],–,–,–,"IC50 (mushroom tyrosinase [2]; mushroom tyrosinase, reference compound, ref [20]): 420 µM"
"O=c1cc(-c2cc(O)c(O)c(O)c2)oc2cc(O)cc(O)c12 [pentahydroxyflavone, 3’,4’,5,5’,7-pentahydroxyflavone]",–,–,–,"type of tyrosinase inhibition (mushroom tyrosinase [2]; previously reported, ref [29]): competitive inhibitor"

# Further lines, with some results ahead:
tyrosinase inhibitory effect (in words) (mushroom tyrosinase [1]),% inhibition (at 0.8 mM) (mushroom tyrosinase [1]) [%],IC50 (mushroom tyrosinase [1]) [µM],SMILES,also measured
–,26.7,1560,"O=c1oc2ccc(O)cc2cc1-c1ccc(O)cc1 [Compound 4, 6-hydroxy-3-(4’-hydroxyphenyl)coumarin]",–
–,0,–,O=c1oc2ccc(O)cc2cc1-c1cc(O)cc(O)c1 [Compound 5],–
–,19.3,3680,O=c1oc2cc(O)ccc2cc1-c1cc(O)cc(O)c1 [Compound 6],–
–,0,–,O=c1oc2c(O)cc(O)cc2cc1-c1cc(O)cc(O)c1 [Compound 7],–
–,68.3,270,"O=c1oc2c(O)cc(O)cc2cc1-c1cc(O)c(O)c(O)c1 [Compound 8, 3-(3’,4’,5’-trihydroxyphenyl)-6,8-dihydroxycoumarin]","type of tyrosinase inhibition (Dixon plot) (mushroom tyrosinase [1]; with respect to L-DOPA as substrate at 0.5, 0.25 and 0.1 mM): non-competitive"
